Results reported in PubChem BioAssay AID330 (DTP/NCI, 2004).
Where “and” joins values, the source holds several entries; their conditions need not be identical. Equal values may be shown once. Toxic doses and inconclusive results are not listed.

Tested on: P388 leukemia ip, CD2F1 mice, survival T/C
Experiment: NCI In Vivo Anticancer Drug Screen. Data for tumor model P388 Leukemia (intraperitoneal) in CD2F1 (CDF1) mice
Details: endpoint: median survival time, higher = longer survival
How it was run: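 Mice carrying the transplanted tumor received test compound or vehicle. Survival was recorded in each group, and the value is the treated-group measurement divided by that of the vehicle-treated control group.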

[1] = dose: 50.0 mg/kg/injection, schedule: Q01DX009 (ip), vehicle: Klucel (hydroxypropylcellulose) (HPC)
[2] = dose: 100.0 mg/kg/injection, schedule: Q01DX009 (ip), vehicle: Klucel (hydroxypropylcellulose) (HPC)
[3] = dose: 200.0 mg/kg/injection, schedule: Q01DX009 (ip), vehicle: Klucel (hydroxypropylcellulose) (HPC)
[4] = dose: 12.5 mg/kg/injection, schedule: Q01DX005 (ip), vehicle: saline with Tween-80
[5] = dose: 25.0 mg/kg/injection, schedule: Q01DX005 (ip), vehicle: saline with Tween-80
[6] = dose: 50.0 mg/kg/injection, schedule: Q01DX005 (ip), vehicle: saline with Tween-80
[7] = dose: 50.0 mg/kg/injection, schedule: Q01DX005 (ip), vehicle: Klucel (hydroxypropylcellulose) (HPC)
[8] = dose: 100.0 mg/kg/injection, schedule: Q01DX005 (ip), vehicle: Klucel (hydroxypropylcellulose) (HPC)
[9] = dose: 100.0 mg/kg/injection, schedule: Q01DX009 (ip), vehicle: saline with Tween-80
[10] = dose: 50.0 mg/kg/injection, schedule: Q01DX009 (ip), vehicle: saline with Tween-80
[11] = dose: 200.0 mg/kg/injection, schedule: Q01DX009 (ip), vehicle: saline with Tween-80
[12] = dose: 200.0 mg/kg/injection, schedule: Q01DX005 (ip), vehicle: saline with Tween-80
[13] = dose: 100.0 mg/kg/injection, schedule: Q01DX005 (ip), vehicle: saline with Tween-80
[14] = dose: 50.0 mg/kg/injection, schedule: Q01DX009 (ip), vehicle: saline
[15] = dose: 100.0 mg/kg/injection, schedule: Q01DX009 (ip), vehicle: saline
[16] = dose: 200.0 mg/kg/injection, schedule: Q01DX005 (ip), vehicle: Klucel (hydroxypropylcellulose) (HPC)
[17] = dose: 60.0 mg/kg/injection, schedule: Q01DX005 (ip), vehicle: saline with Tween-80
[18] = dose: 120.0 mg/kg/injection, schedule: Q01DX005 (ip), vehicle: saline with Tween-80
[19] = dose: 240.0 mg/kg/injection, schedule: Q01DX005 (ip), vehicle: saline with Tween-80

## C=C1C(=O)O[C@@H]2C[C@@H](C)[C@@H]3C=CC(=O)[C@@]3(C)[C@@H](OC(=O)CCCC(=O)O[C@H]3[C@@H]4C(=C)C(=O)O[C@@H]4C[C@@H](C)[C@@H]4C=CC(=O)[C@]43C)[C@H]12
dose: 0.39 mg/kg/injection, schedule: Q01DX005 (ip), vehicle: Klucel (hydroxypropylcellulose) (HPC)
  T/C: 101 % of control
dose: 0.78 mg/kg/injection, schedule: Q01DX005 (ip), vehicle: Klucel (hydroxypropylcellulose) (HPC)
  T/C: 100 % of control
dose: 1.56 mg/kg/injection, schedule: Q01DX005 (ip), vehicle: Klucel (hydroxypropylcellulose) (HPC)
  T/C: 103 % of control and 118 % of control
dose: 3.12 mg/kg/injection, schedule: Q01DX005 (ip), vehicle: Klucel (hydroxypropylcellulose) (HPC)
  T/C: 116 % of control
dose: 6.25 mg/kg/injection, schedule: Q01DX005 (ip), vehicle: Klucel (hydroxypropylcellulose) (HPC)
  T/C: 109 % of control

## CSc1nc2ccc(NC(=O)/C=N/O)cc2s1
[1]
  T/C: 91 % of control
[2]
  T/C: 92 % of control
[3]
  T/C: 87 % of control and 90 % of control

## O=C(CCCCC(=O)Nc1cc(C2=NCCN2)cc(C2N=CCN2)c1)Nc1cc(C2=NCCN2)cc(C2=NCCN2)c1 (centres undefined)
dose: 6.25 mg/kg/injection, schedule: Q01DX005 (ip), vehicle: saline
  T/C: 104 % of control

## CC1OC(OC2C(Oc3cc(O)c4c(c3)OC(c3ccc(O)cc3)CC4=O)OC(CO)C(O)C2O)C(O)C(O)C1O (centres undefined)
dose: 50.0 mg/kg/injection, schedule: Q01DX005 (ip), vehicle: saline
  T/C: 98 % of control
dose: 100.0 mg/kg/injection, schedule: Q01DX005 (ip), vehicle: saline
  T/C: 97 % of control
dose: 200.0 mg/kg/injection, schedule: Q01DX005 (ip), vehicle: saline
  T/C: 98 % of control

## COc1ccc2c(c1)c(NCCCCCC#N)cc(C)[n+]2C
[4]
  T/C: 100 % of control
[5]
  T/C: 100 % of control
[6]
  T/C: 105 % of control

## CCCCOCCOCCOCCOCCCN1C(=O)C2C3C=CC(C3)C2C1=O (centres undefined)
[7]
  T/C: 97 % of control
[8]
  T/C: 100 % of control

## CN(C)c1ccc(C=NCCCN=Cc2ccc(N(C)C)cc2)cc1
[9]
  T/C: 104 % of control

## Fc1cccc(Cl)c1C(Nc1nncs1)Nc1nncs1
dose: 120.0 mg/kg/injection, schedule: Q01DX005 (ip), vehicle: Klucel (hydroxypropylcellulose) (HPC)
  T/C: 171 % of control
dose: 240.0 mg/kg/injection, schedule: Q01DX005 (ip), vehicle: Klucel (hydroxypropylcellulose) (HPC)
  T/C: 187 % of control and 194 % of control

## CC(=O)OC1OC(C(OC(C)=O)C(Cl)Cl)OC1C(Cl)Cl (centres undefined)
[10]
  T/C: 97 % of control
[9]
  T/C: 105 % of control
[11]
  T/C: 112 % of control

## CC1(C)C2CCC1(C)C(N1C(=O)N=NC1=O)C2 (centres undefined)
[4]
  T/C: 100 % of control
[5]
  T/C: 103 % of control
[6]
  T/C: 103 % of control and 91 % of control
[12]
  T/C: 104 % of control

## CCCCCCCC/C=C/CCCCCCCC(=O)OCC(=O)OCC
[1]
  T/C: 102 % of control
[2]
  T/C: 93 % of control
[3]
  T/C: 104 % of control

## CN(C)[C@@H]1C(=O)C(C(=O)NCc2nc3[nH]cnc(=S)c3[nH]2)=C(O)[C@@]2(O)C(=O)C3=C(O)c4c(O)cccc4[C@@](C)(O)[C@H]3C[C@@H]12
[9]
  T/C: 100 % of control
dose: 100.0 mg/kg/injection, schedule: Q04DX003 (ip), vehicle: saline with Tween-80
  T/C: 95 % of control
[11]
  T/C: 100 % of control
dose: 200.0 mg/kg/injection, schedule: Q04DX003 (ip), vehicle: saline with Tween-80
  T/C: 95 % of control
dose: 400.0 mg/kg/injection, schedule: Q01DX009 (ip), vehicle: saline with Tween-80
  T/C: 110 % of control
dose: 400.0 mg/kg/injection, schedule: Q04DX003 (ip), vehicle: saline with Tween-80
  T/C: 100 % of control

## COc1cccc(C(Cc2ccccc2)NCc2ccccc2)c1O (centres undefined)
[6]
  T/C: 105 % of control
[13]
  T/C: 103 % of control
[12]
  T/C: 101 % of control

## C[CH](C)[GeH]([CH](C)C)[CH](C)C
[14]
  T/C: 91 % of control
[15]
  T/C: 91 % of control

## CC1=C(CCC(C)CO)OC2CC3C4CCC5CC(O)CCC5(C)C4CCC3(C)C12 (centres undefined)
dose: 25.0 mg/kg/injection, schedule: Q01DX009 (ip), vehicle: suspension in saline
  T/C: 90 % of control and 95 % of control
dose: 50.0 mg/kg/injection, schedule: Q01DX009 (ip), vehicle: suspension in saline
  T/C: 96 % of control
dose: 100.0 mg/kg/injection, schedule: Q01DX009 (ip), vehicle: suspension in saline
  T/C: 88 % of control and 94 % of control
dose: 200.0 mg/kg/injection, schedule: Q01DX009 (ip), vehicle: suspension in saline
  T/C: 87 % of control and 89 % of control

## COc1ccc(/C=C2\CCN=C2c2ccccc2)cc1OC
[7]
  T/C: 101 % of control
[8]
  T/C: 97 % of control
[16]
  T/C: 96 % of control

## O=c1oc(-c2ccccc2)cc2ccccc12
[7]
  T/C: 100 % of control and 105 % of control
[8]
  T/C: 99 % of control and 109 % of control
[16]
  T/C: 99 % of control and 98 % of control
dose: 400.0 mg/kg/injection, schedule: Q01DX005 (ip), vehicle: Klucel (hydroxypropylcellulose) (HPC)
  T/C: 100 % of control and 93 % of control

## O=Cc1c(-c2ccc(-c3ccccc3)cc2)nc2n1CCS2
dose: 100.0 mg/kg/injection, schedule: Q01DX001 (ip), vehicle: Klucel (hydroxypropylcellulose) (HPC)
  T/C: 100 % of control
dose: 200.0 mg/kg/injection, schedule: Q01DX001 (ip), vehicle: Klucel (hydroxypropylcellulose) (HPC)
  T/C: 97 % of control

## CN(C)c1ccc(N=Nc2ccc3ccc4cccc5ccc2c3c45)cc1
[10]
  T/C: 93 % of control
[9]
  T/C: 89 % of control
[11]
  T/C: 102 % of control

## COc1ccc2nc(N/N=C(/c3ccccc3)c3ccccn3)cc(C)c2c1
[6]
  T/C: 107 % of control
[13]
  T/C: 100 % of control
[12]
  T/C: 100 % of control

## CCOC(=O)[C@H]1CC[C@@H](C(=O)OCC)N1Sc1ccc([N+](=O)[O-])cc1[N+](=O)[O-]
[6]
  T/C: 102 % of control
[13]
  T/C: 102 % of control
[12]
  T/C: 102 % of control

## NC(CCCCCCC(N)C(=O)c1ccccc1)C(=O)c1ccccc1 (centres undefined)
[17]
  T/C: 98 % of control
[18]
  T/C: 98 % of control
[19]
  T/C: 91 % of control

## NC(=S)c1cccc(/C=N/Nc2ccccc2)n1
dose: 100.0 mg/kg/injection, schedule: Q04DX003 (ip), vehicle: Klucel (hydroxypropylcellulose) (HPC)
  T/C: 101 % of control
dose: 200.0 mg/kg/injection, schedule: Q04DX003 (ip), vehicle: Klucel (hydroxypropylcellulose) (HPC)
  T/C: 99 % of control
dose: 400.0 mg/kg/injection, schedule: Q04DX003 (ip), vehicle: Klucel (hydroxypropylcellulose) (HPC)
  T/C: 97 % of control

## Nc1ncc[nH]c1=O
[14]
  T/C: 100 % of control
[15]
  T/C: 97 % of control

## O=C(CCl)c1ccc(Cl)c(Cl)c1
dose: 100.0 mg/kg/injection, schedule: Q01DX001 (ip), vehicle: other
  T/C: 100 % of control
dose: 200.0 mg/kg/injection, schedule: Q01DX001 (ip), vehicle: other
  T/C: 100 % of control

## COc1ccccc1/C(=N/Nc1ccccc1)[N+](=O)[O-]
dose: 50.0 mg/kg/injection, schedule: Q01DX009 (ip), vehicle: saline + Tween-80 + alcohol
  T/C: 106 % of control
dose: 100.0 mg/kg/injection, schedule: Q01DX009 (ip), vehicle: saline + Tween-80 + alcohol
  T/C: 101 % of control
dose: 200.0 mg/kg/injection, schedule: Q01DX009 (ip), vehicle: saline + Tween-80 + alcohol
  T/C: 109 % of control

## COc1cc(OC)c(C2CC(C)(O)Oc3cc4c(cc32)OCO4)c(OC)c1 (centres undefined)
[17]
  T/C: 91 % of control
[18]
  T/C: 86 % of control
[19]
  T/C: 88 % of control

## O=c1c2ccccc2nc(CCN(CCCl)CCCl)n1-c1ccc(Cl)cc1
dose: 25.0 mg/kg/injection, schedule: Q01DX001 (ip), vehicle: saline
  T/C: 106 % of control
dose: 50.0 mg/kg/injection, schedule: Q01DX001 (ip), vehicle: saline
  T/C: 113 % of control
dose: 200.0 mg/kg/injection, schedule: Q01DX001 (ip), vehicle: saline
  T/C: 164 % of control

## Cc1ncc(Cl)c2cc3ccccc3cc12
[14]
  T/C: 101 % of control and 89 % of control
[15]
  T/C: 99 % of control
dose: 200.0 mg/kg/injection, schedule: Q01DX009 (ip), vehicle: saline
  T/C: 99 % of control and 94 % of control

## Cc1nnc2cc1CCCCCCCCC2
[7]
  T/C: 108 % of control
[8]
  T/C: 107 % of control
[16]
  T/C: 103 % of control

## CC(=O)c1cc([N+](=O)[O-])c(N)s1
dose: 12.5 mg/kg/injection, schedule: Q01DX009 (ip), vehicle: Klucel (hydroxypropylcellulose) (HPC)
  T/C: 111 % of control
dose: 25.0 mg/kg/injection, schedule: Q01DX009 (ip), vehicle: Klucel (hydroxypropylcellulose) (HPC)
  T/C: 111 % of control
[1]
  T/C: 95 % of control
[2]
  T/C: 107 % of control

## Nc1ncnc2c1cnn2Cc1ccc(Cl)cc1
[10]
  T/C: 100 % of control
[9]
  T/C: 100 % of control
